Measurements reported in US20250145633A1, “SUBSTITUTED FURANOPYRIMIDINE COMPOUNDS AS PDE1 INHIBITORS” (Dart NeuroScience, LLC, priority 2017, published 2025).

Target: human PDE1B enzyme (Homo sapiens (Human), UniProt Q01064)
Assay: IMAP TR-FRET PDE1B enzymatic assay
Type: biochemical
Conditions: negative log of half-maximal molar inhibitory concentration, 200 nM FAM-cAMP, values given as bins; for IC50: read-out: PDE1b (pIC50) (converted)
Summary of the method: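 Full-length GST-tagged human PDE1B (250 pg/well) in IMAP BSA buffer with 10 U/ml calmodulin and 2.5 mM CaCl2; compound pre-incubated 5 min at room temperature, then 200 nM (final) FAM-cAMP for 30 min. IMAP binding reagent/Tb added, 1 h; TR-FRET 520/490 ratio read. IC50 from sigmoidal dose-response fit.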

`Cc1oc2ncnc(NC3(C)CC3)c2c1C(=O)NCc1ncc(C(F)F)cn1` [Example 706, N-{[5-(Difluoromethyl)pyrimidin-2-yl]methyl}-6-methyl-4-[(1-methylcyclopropyl)amino]furo[2,3-d]pyrimidine-5-carboxamide] showed an IC50 of 10 to 100 nM.

`Cc1oc2ncnc(NC3(C)CC3)c2c1C(=O)NCc1nccc(C(F)F)n1` [Example 707, N-{[4-(Difluoromethyl)pyrimidin-2-yl]methyl}-6-methyl-4-[(1-methylcyclopropyl)amino]furo[2,3-d]pyrimidine-5-carboxamide] gave an IC50 of 10 to 100 nM.

With `Cc1oc2ncnc(NC3(C)CC3)c2c1C(=O)NCc1cnc(C2CC2)nc1` [Example 708, N-[(2-Cyclopropylpyrimidin-5-yl)methyl]-6-methyl-4-[(1-methylcyclopropyl)amino]furo[2,3-d]pyrimidine-5-carboxamide] the “PDE1b (pIC50)” value was >8.

In the case of `COc1nc(C)nc2c1CN(C(=O)c1c(C)oc3ncnc(NC4(C)CC4)c13)C2` [Example 709, 5-{4-Methoxy-2-methyl-5H,6H,7H-pyrrolo[3,4-d]pyrimidine-6-carbonyl}-6-methyl-N-(1-methylcyclopropyl)furo[2,3-d]pyrimidin-4-amine], the IC50 is reported as 100 to 1000 nM.

Compound `Cc1oc2ncnc(NC3(C)CC3)c2c1C(=O)NC(C)c1cncnc1` (stereo not shown) [Example 710, 6-Methyl-4-[(1-methylcyclopropyl)amino]-N-[1-(pyrimidin-5-yl)ethyl]furo[2,3-d]pyrimidine-5-carboxamide] has an IC50 of 10 to 100 nM.

With `COc1ccc(CNC(=O)c2c(C)oc3ncnc(NC4(C)CC4)c23)nn1` [Example 711, N-[(6-Methoxypyridazin-3-yl)methyl]-6-methyl-4-[(1-methylcyclopropyl)amino]furo[2,3-d]pyrimidine-5-carboxamide] the IC50 was 10 to 100 nM.

For `COc1nc(C)nc2c1CN(C(=O)c1c(C)oc3ncnc(NC4(C)CC4)c13)CC2` [Example 712, 5-{4-Methoxy-2-methyl-5H,6H,7H,8H-pyrido[4,3-d]pyrimidine-6-carbonyl}-6-methyl-N-(1-methylcyclopropyl)furo[2,3-d]pyrimidin-4-amine], the IC50 was 10 to 100 nM.

`Cc1oc2ncnc(NC3(C)CC3)c2c1C(=O)NCc1ncco1` [Example 713, 6-Methyl-4-[(1-methylcyclopropyl)amino]-N-(1,3-oxazol-2-ylmethyl)furo[2,3-d]pyrimidine-5-carboxamide] gave an IC50 of 10 to 100 nM.

For `COc1ccc2oc(CNC(=O)c3c(C)oc4ncnc(NC5(C)CC5)c34)nc2c1` [Example 714, N-[(5-Methoxy-1,3-benzoxazol-2-yl)methyl]-6-methyl-4-[(1-methylcyclopropyl)amino]furo[2,3-d]pyrimidine-5-carboxamide], the “PDE1b (pIC50)” value was >8.

Work on `Cc1oc2ncnc(NC3(C)CC3)c2c1C(=O)NCc1nccn1C` [Example 715, 6-Methyl-N-[(1-methyl-1H-imidazol-2-yl)methyl]-4-[(1-methylcyclopropyl)amino]furo[2,3-d]pyrimidine-5-carboxamide] yielded an IC50 of 10 to 100 nM.

With `Cc1oc2ncnc(NC3(C)CC3)c2c1C(=O)NCc1ncc(Cl)cn1` [Example 716, N-[(5-Chloropyrimidin-2-yl)methyl]-6-methyl-4-[(1-methylcyclopropyl)amino]furo[2,3-d]pyrimidine-5-carboxamide] the “PDE1b (pIC50)” value was >8.

`Cc1nnc(CNC(=O)c2c(C)oc3ncnc(NC4(C)CC4)c23)o1` [Example 717, 6-Methyl-N-[(5-methyl-1,3,4-oxadiazol-2-yl)methyl]-4-[(1-methylcyclopropyl)amino]furo[2,3-d]pyrimidine-5-carboxamide] gave an IC50 of 10 to 100 nM.

`Cc1ccc(CNC(=O)c2c(C)oc3ncnc(NC4(C)CC4)c23)nn1` [Example 718, 6-Methyl-4-[(1-methylcyclopropyl)amino]-N-[(6-methylpyridazin-3-yl)methyl]furo[2,3-d]pyrimidine-5-carboxamide] was tested, and the IC50 was 10 to 100 nM.

Compound `Cc1oc2ncnc(NC3(C)CC3)c2c1C(=O)NCc1cn2ccnc2cn1` [Example 719, N-{Imidazo[1,2-a]pyrazin-6-ylmethyl}-6-methyl-4-[(1-methylcyclopropyl)amino]furo[2,3-d]pyrimidine-5-carboxamide] has an IC50 of 10 to 100 nM.

Compound `Cc1oc2ncnc(NC3(C)CC3)c2c1C(=O)NC1CN(c2ccncn2)C1` [Example 720, 6-Methyl-4-[(1-methylcyclopropyl)amino]-N-[1-(pyrimidin-4-yl)azetidin-3-yl]furo[2,3-d]pyrimidine-5-carboxamide] has an IC50 of 100 to 1000 nM.

`Cc1oc2ncnc(NC3(C)CC3)c2c1C(=O)Nc1ccc(C2CCOCC2)cc1` [Example 721, 6-Methyl-4-[(1-methylcyclopropyl)amino]-N-[4-(oxan-4-yl)phenyl]furo[2,3-d]pyrimidine-5-carboxamide] showed an IC50 of 100 to 1000 nM.

`Cc1oc2ncnc(NC3(C)CC3)c2c1C(=O)NCc1ccc(OC(F)(F)F)cc1` [Example 722, 6-Methyl-4-[(1-methylcyclopropyl)amino]-N-{[4-(trifluoromethoxy)phenyl]methyl}furo[2,3-d]pyrimidine-5-carboxamide] was tested, and the IC50 was 10 to 100 nM.

With `Cc1oc2ncnc(NC3(C)CC3)c2c1C(=O)NCc1ccc(OC(F)(F)F)cc1F` [Example 723, N-{[2-Fluoro-4-(trifluoromethoxy)phenyl]methyl}-6-methyl-4-[(1-methylcyclopropyl)amino]furo[2,3-d]pyrimidine-5-carboxamide] the IC50 was 10 to 100 nM.

For `Cc1oc2ncnc(NC3(C)CC3)c2c1C(=O)NCCc1nc2cc(F)ccc2[nH]1` [Example 724, N-[2-(5-Fluoro-1H-1,3-benzodiazol-2-yl)ethyl]-6-methyl-4-[(1-methylcyclopropyl)amino]furo[2,3-d]pyrimidine-5-carboxamide], the IC50 was 10 to 100 nM.

Compound `Cc1oc2ncnc(NC3(C)CC3)c2c1C(=O)NCc1nc2ccc(F)cc2n1C` [Example 725, N-[(6-Fluoro-1-methyl-1H-1,3-benzodiazol-2-yl)methyl]-6-methyl-4-[(1-methylcyclopropyl)amino]furo[2,3-d]pyrimidine-5-carboxamide] has an IC50 of 10 to 100 nM.

Work on `CCc1nccc(CNC(=O)c2c(C)oc3ncnc(NC4(C)CC4)c23)n1` [Example 726, N-[(2-Ethylpyrimidin-4-yl)methyl]-6-methyl-4-[(1-methylcyclopropyl)amino]furo[2,3-d]pyrimidine-5-carboxamide] yielded an IC50 of 10 to 100 nM.

`Cc1oc2ncnc(NC3(C)CC3)c2c1C(=O)Nc1ccc(C2CCOCC2)cn1` [Example 727, 6-Methyl-4-[(1-methylcyclopropyl)amino]-N-[5-(oxan-4-yl)pyridin-2-yl]furo[2,3-d]pyrimidine-5-carboxamide] was tested, and the IC50 was 10 to 100 nM.

`Cc1nc(CNC(=O)c2c(C)oc3ncnc(NC4(C)CC4)c23)oc1C` [Example 728, N-[(Dimethyl-1,3-oxazol-2-yl)methyl]-6-methyl-4-[(1-methylcyclopropyl)amino]furo[2,3-d]pyrimidine-5-carboxamide] showed an IC50 of 10 to 100 nM.

With `Cc1oc2ncnc(NC3(C)CC3)c2c1C(=O)NCc1nc2cc(F)ccc2[nH]1` [Example 729, N-[(5-Fluoro-1H-1,3-benzodiazol-2-yl)methyl]-6-methyl-4-[(1-methylcyclopropyl)amino]furo[2,3-d]pyrimidine-5-carboxamide] the IC50 was 10 to 100 nM.

For `Cc1oc2ncnc(NC3(C)CC3)c2c1C(=O)NCCc1nc2cc(F)ccc2o1` [Example 730, N-[2-(5-Fluoro-1,3-benzoxazol-2-yl)ethyl]-6-methyl-4-[(1-methylcyclopropyl)amino]furo[2,3-d]pyrimidine-5-carboxamide], the IC50 was 10 to 100 nM.
